Experimental findings from paper PMC9860845, “Synthesis, DFT Studies, Molecular Docking and Biological Activity Evaluation of Thiazole-Sulfonamide Derivatives as Potent Alzheimer’s Inhibitors” (Molecules, 2023) are described below.

Molecules are shown by their SMILES. Like-named read-outs stand apart in the source and are kept apart here.

Experiment [1] deals with acetylcholinesterase (AChE) (Homo sapiens, UniProt P22303). Briefly: biochemical.
Experiment [2] has as its target butyrylcholinesterase (BuChE) (Homo sapiens, UniProt P06276). In words: biochemical.
Setting [3] is: Ellman method, pH 7.7, 37 °C, triplicate, ± SEM, read-out: AchE IC50.
Where [4] appears, read: Ellman method, pH 7.7, 37 °C, triplicate, ± SEM, read-out: BuChE IC50.

Sequence of acetylcholinesterase (AChE) (P22303 32-614, species assumed): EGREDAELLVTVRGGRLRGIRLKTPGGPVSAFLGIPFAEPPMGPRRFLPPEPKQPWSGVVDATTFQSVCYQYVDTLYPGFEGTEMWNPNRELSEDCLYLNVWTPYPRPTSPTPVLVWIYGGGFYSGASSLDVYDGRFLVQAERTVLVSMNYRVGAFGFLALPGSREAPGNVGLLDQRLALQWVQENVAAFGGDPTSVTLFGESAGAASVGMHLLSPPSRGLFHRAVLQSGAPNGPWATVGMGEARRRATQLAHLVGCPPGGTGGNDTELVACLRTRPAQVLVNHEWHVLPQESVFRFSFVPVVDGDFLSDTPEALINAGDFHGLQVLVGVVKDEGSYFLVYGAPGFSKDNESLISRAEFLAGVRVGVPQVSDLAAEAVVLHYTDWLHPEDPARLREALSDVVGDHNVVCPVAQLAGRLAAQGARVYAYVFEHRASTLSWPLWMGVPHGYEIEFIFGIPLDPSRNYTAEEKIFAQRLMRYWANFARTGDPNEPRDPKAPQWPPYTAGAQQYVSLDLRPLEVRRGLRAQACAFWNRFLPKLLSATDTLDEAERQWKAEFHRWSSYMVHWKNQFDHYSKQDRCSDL
Sequence of butyrylcholinesterase (BuChE) (P06276 29-602): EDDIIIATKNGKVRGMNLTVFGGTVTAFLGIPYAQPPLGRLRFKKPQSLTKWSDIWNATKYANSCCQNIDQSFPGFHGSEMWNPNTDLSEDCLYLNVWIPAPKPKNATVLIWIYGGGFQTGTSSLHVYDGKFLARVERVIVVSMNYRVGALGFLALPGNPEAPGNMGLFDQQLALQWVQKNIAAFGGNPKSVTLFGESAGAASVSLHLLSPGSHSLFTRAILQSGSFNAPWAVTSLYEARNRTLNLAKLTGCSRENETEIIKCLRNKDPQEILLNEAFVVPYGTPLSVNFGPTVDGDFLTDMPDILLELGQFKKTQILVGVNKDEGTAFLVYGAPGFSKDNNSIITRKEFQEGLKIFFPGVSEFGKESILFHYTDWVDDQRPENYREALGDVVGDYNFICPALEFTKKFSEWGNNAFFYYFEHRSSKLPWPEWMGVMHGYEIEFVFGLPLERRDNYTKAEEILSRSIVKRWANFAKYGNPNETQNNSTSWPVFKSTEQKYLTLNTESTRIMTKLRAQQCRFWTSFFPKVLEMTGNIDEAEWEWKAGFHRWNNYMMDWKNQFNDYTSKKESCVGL

What is called IC50 is the concentration that inhibits the measured activity by half. On to `O=S(=O)(NNc1nc(-c2ccc(Cl)cc2)cs1)c1ccc(Cl)cc1` [analog 7, 4-Chloro-N′-(4-(4-chlorophenyl)thiazol-2-yl)benzenesulfonohydrazide], for which the values for the IC50 in experiment [1] (setting [3]) and in experiment [2] (setting [4]) were 2600 ± 100 nM and 4200 ± 100 nM, respectively.
The corresponding values for `O=S(=O)(NNc1nc(-c2ccc(-c3ccccc3)cc2)cs1)c1ccc(Cl)cc1` [analog 8, N′-(4-([1,1′-biphenyl]-4-yl)thiazol-2-yl)-4-chlorobenzenesulfonohydrazide] are 7300 ± 100 nM and 9200 ± 100 nM.
For `O=[N+]([O-])c1cccc(S(=O)(=O)NNc2nc(-c3ccc(Cl)cc3)cs2)c1` [analog 14, N′-(4-(4-chlorophenyl)thiazol-2-yl)-3-nitrobenzenesulfonohydrazide], the values for the IC50 in experiment [1] (setting [3]) and in experiment [2] (setting [4]) were 1200 ± 100 nM and 2700 ± 100 nM, respectively.
In the case of `O=[N+]([O-])c1cccc(-c2csc(NNS(=O)(=O)c3cc(Cl)cc(Cl)c3O)n2)c1` [analog 1, 3,5-Dichlro-2-hydroxy-N′-(4-(3-nitrophenyl)thiazol-2-yl)benzenesulfonohydrazide], the IC50 is 100 ± 50 nM in experiment [1] (setting [3]) and 200 ± 50 nM in experiment [2] (setting [4]).
On the same counts, the results for `O=[N+]([O-])c1cccc(S(=O)(=O)NNc2nc(-c3ccc(Cl)c(Cl)c3)cs2)c1` [analog 13, N′-(4-(3,4-dichlorophenyl)thiazol-2-yl)-3-nitrobenzenesulfonohydrazide] are 300 ± 100 nM and 1400 ± 100 nM.
Consider `O=[N+]([O-])c1ccc([N+](=O)[O-])c(S(=O)(=O)NNc2nc(-c3ccc(-c4ccccc4)cc3)cs2)c1` [analog 19, N′-(4-([1,1′-biphenyl]-4-yl)thiazol-2-yl)-2,5-dinitrobenzenesulfonohydrazide], for which the 50% inhibitory concentration (IC50) was 3100 ± 100 nM in experiment [1] and 4300 ± 100 nM in experiment [2].
On to `Cc1ccc([N+](=O)[O-])cc1S(=O)(=O)NNc1nc(-c2cccc([N+](=O)[O-])c2)cs1` [analog 4, 2-Methyl-5-nitro-N′-(4-(3-nitrophenyl)thiazol-2-yl)benzenesulfonohydrazide], for which the IC50 in experiment [1] worked out at 3200 ± 100 nM; in experiment [2], 6100 ± 200 nM.
`Cc1ccc([N+](=O)[O-])cc1S(=O)(=O)NNc1nc(-c2ccc(Cl)c(Cl)c2)cs1` [analog 10, N′-(4-(3,4-dichlorophenyl)thiazol-2-yl)-2-methyl-5-nitrobenzenesulfonohydrazide]: the concentration for half-maximal inhibition (IC50) in experiment [1] (setting [3]) is 200 ± 50 nM; in experiment [2] (setting [4]), 600 ± 50 nM.
As to `Cc1ccc([N+](=O)[O-])cc1S(=O)(=O)NNc1nc(-c2ccc(Cl)cc2)cs1` [analog 11, N′-(4-(4-chlorophenyl)thiazol-2-yl)-2-methyl-5-nitrobenzenesulfonohydrazide], the IC50 in experiment [1] (setting [3]) came to 3100 ± 100 nM; in experiment [2] (setting [4]), 4400 ± 100 nM.
As to `O=[N+]([O-])c1ccc(S(=O)(=O)NNc2nc(-c3ccccc3)cs2)cc1` [analog 6, 4-Nitro-N′-(4-phenylthiazol-2-yl)benzenesulfonohydrazide], the IC50 in experiment [1] (setting [3]) was found to be 11400 ± 200 nM; in experiment [2] (setting [4]), 14300 ± 300 nM.
The corresponding values for `O=[N+]([O-])c1cccc(-c2csc(NNS(=O)(=O)c3ccc(Cl)cc3)n2)c1` [analog 2, 4-Chloro-N′-(4-(3-nitrophenyl)thiazol-2-yl)benzenesulfonohydrazide] are 1900 ± 100 nM and 2700 ± 100 nM.
In the case of `O=[N+]([O-])c1ccc(S(=O)(=O)NNc2nc(-c3ccc(-c4ccccc4)cc3)cs2)cc1` [analog 21, N′-(4-([1,1′-biphenyl]-4-yl)thiazol-2-yl)-4-nitrobenzenesulfonohydrazide], the IC50 in experiment [1] (setting [3]) was found to be 3200 ± 100 nM; in experiment [2] (setting [4]), 5400 ± 100 nM.
Take `O=[N+]([O-])c1cccc(-c2csc(NNS(=O)(=O)c3cccc([N+](=O)[O-])c3)n2)c1` [analog 3, 3-Nitro-N′-(4-(3-nitrophenyl)thiazol-2-yl)benzenesulfonohydrazide]: the IC50 amounted to 2900 ± 100 nM in experiment [1] and 3800 ± 100 nM in experiment [2].
As for `O=S(=O)(NNc1nc(-c2ccc(Cl)cc2)cs1)c1cc(Cl)cc(Cl)c1O` [analog 9, 3,5-Dichloro-N′-(4-(4-chlorophenyl)thiazol-2-yl)-2-hydroxybenzenesulfonohydrazide], the IC50 in experiment [1] (setting [3]) turned out to be 400 ± 50 nM; in experiment [2] (setting [4]) it was 700 ± 50 nM.
As for `O=[N+]([O-])c1ccc(S(=O)(=O)NNc2nc(-c3cccc([N+](=O)[O-])c3)cs2)cc1` [analog 20, 4-Nitro-N′-(4-(3-nitrophenyl)thiazol-2-yl)benzenesulfonohydrazide], the IC50 in experiment [1] turned out to be 3500 ± 100 nM; in experiment [2], 5500 ± 100 nM.
On to `Cc1ccc([N+](=O)[O-])cc1S(=O)(=O)NNc1nc(-c2ccc(-c3ccccc3)cc2)cs1` [analog 16, N′-(4-([1,1′-biphenyl]-4-yl)thiazol-2-yl)-2-methyl-5-nitrobenzenesulfonohydrazide], for which the IC50 in experiment [1] (setting [3]) and in experiment [2] (setting [4]) was 300 ± 50 nM in each case.
For `O=S(=O)(NNc1nc(-c2ccc(Cl)c(Cl)c2)cs1)c1ccc(Cl)cc1` [analog 15, 4-Chloro-N′-(4-(3,4-dichlorophenyl)thiazol-2-yl)benzenesulfonohydrazide], the IC50 came out at 400 ± 100 nM in experiment [1] (setting [3]) and 900 ± 100 nM in experiment [2] (setting [4]).
